Experimental data reported in US20250027041A1, “COMPOSITION FOR INDUCING TRANSDIFFERENTIATION AND STEM CELLS TREATED THEREWITH” (YJ CERAPEUTICS INC., priority 2021, published 2025).

Key:
[1] = test system: HES1, Sox2 and OCT4 gene promoters (CtBP1, CtBP1-LSD1 complex); assay: ChIP assay, target genes of CtBP1-YJ102; assay type: cell-based, human; conditions: YJ102, 2 days, UCB-MSC
Protocol: To identify a target gene of CtBP1-YJ102 in human UCB-MSC, chromatin immunoprecipitation (ChIP) assay was performed. Specifically, 2×10^6 human UCB-MSCs were dispensed into a 100 mm culture dish, treated with 10 μl of YJ102 (30 mM) or DMSO (control) the next day, and incubated for 2 days. For cross-linking and DNA sharing, the cells were added with formaldehyde to be 1% to the culture dish in which UCB-MSCs were incubated and incubated at 37° C. for 10 minutes to be fixed. The culture medium was removed and washed twice with PBS containing a protease inhibitor to collect the cells. The cells were centrifuged at 3000 rpm at 4° C. for 5 minutes to remove the supernatant, and the cells were added with an SDS lysis buffer containing a protease inhibitor, incubated on ice for 10 minutes, and lysed by ultrasound. The cells were centrifuged at 13,000 rpm at 4° C. for 10 minutes, the supernatant was transferred to a new microcentrifuge tube, and added with 1/10 volume of ChIP Dilution Buffer. Thereafter, DNA was purified and subjected to agarose gel electrophoresis to confirm that the DNA was shared at 200 to 1000 bp. In addition, for chromatin immunoprecipitation, the Protein G agarose slurry was washed with PBS, blocked with 1 ml of 1% BSA, and then washed with PBS, added with a cell lysate lysed by ultrasound and primary antibodies included anti-CtBP1 antibody (Cat. 07-306, Millipore), anti-LSD1 antibody (Cat. A1156, Abclonal), and Normal rabbit IgG (Cat. 12-370, Merck Millipore) (control group) at 1 μg each, and then incubated using a rotator overnight at 4° C. The next day, the supernatant was removed by centrifugation, and DNA-antibody-agarose beads were washed once with Low Salt Immune Complex Wash Buffer; High Salt Immune Complex Wash Buffer; and LiCl Immune Complex Wash Buffer in sequence, and then washed twice with 1×TE. The DNA-antibody-agarose beads were added with 250 μl of elution buffer (1% SDS, 0.1M NaHCO3), incubated at room temperature for 15 minutes using a rotator, and centrifuged, and the supernatant was transferred to a new microcentrifuge tube. The elution process was repeated one more time and the eluate was mixed. The eluate was added with 20 μl of 5 M NaCl, heated at 65° C. for 4 hours, and then added with 10 μl of 0.5 M EDTA, 20 μl of 1 M Tris-HCl (pH 6.5), and 2 μl of proteinase K (10 mg/ml) and incubated at 45° C. for 1 hour. Phenol/chloroform extraction and ethanol precipitation were performed, the DNA pellet was resuspended in DW, and then real-time quantitative PCR was performed using primers shown in Table 2 below.

UCB-MSC (Promo Cell) = assay: Tuj1 immunochemical assay, UCB-MSC (Promo Cell); assay type: cell-based, human; conditions: 10, 20 or 30 μM, 5 days
Protocol: To determine whether transdifferentiation into ciNSC5, neural progenitor cells, occurred similarly even in MSCs of different origins when human UCB-MSCs were treated with YJ101, YJ102, or YJ103 for 5 days, the expression of neuronal markers in differentiated ciNSC5 was confirmed by immunochemical assay using MSCs from human adipose-derived mesenchymal stem cells (AD-MSCs), human bone marrow-derived mesenchymal stem cells ([…]) and human umbilical cord blood-derived mesenchymal stem cells (UCB-MSCs; Promo Cells). Specifically, AD-MSC (StemPro™ Human Adipose-Derived Stem Cell, Gibco, Passage #6) was incubated in a MesenPRO RS™ medium, BM-MSC (ATCC, Passage #6) was incubated in a Mesenchymal Stem Cell Basal Medium for Adipose, Umbilical and Bone Marrow-derived MSC (Cat. PCS-500-030, ATCC) medium, and UCB-MSC (Promo Cell, Passage #6) was incubated in a CellCor™ CD MSC (Cat. YSP001, Xell Therapeutics) medium, and then dispensed at 2.1×10^4 cells/well in a 12-well plate with an 18 mm cover glass (circular) (DMSO control group was dispensed at 3.5×10^3 cells/well). […] The culture medium was removed, washed with PBS, and then fixed with 4% paraformaldehyde at room temperature for 10 minutes. After washed three times with PBS, the cells were permeabilized with PBS-T containing 0.5% Triton X-100 for 10 minutes, washed with PBS-T three times for 10 minutes each, and then blocked with a blocking solution (PBS-T containing 5% BSA and 5% goat serum) for 1 hour. Thereafter, the cells were treated with anti-Tuj1 antibody (Cat. 801201, BioLegend) diluted 1/5000 in a blocking solution and incubated at 4° C. overnight. The next day, the cells were washed 10 times for 10 minutes each with PBS-T, and then treated with anti-mouse IgG-cy3 diluted 1/2000 in a blocking solution, and incubated for 1 hour in dark conditions. Next, the cells were washed 10 times for 10 minutes each with PBS-T, mounted with a mounting solution containing DAPI, and then observed with a confocal microscope.

Which “CtBP1-LSD1 complex binding to Sox2 gene promoter” value [1] does the source give for `CCc1ccc(N(C(=O)COC)c2nc3cc(Cl)ccc3o2)cc1` [YJ102] here?
Its value is “bound to a Sox2 gene promoter”.

And the “CtBP1 binding to HES1 gene promoter” value [1]?
Its value is “increased”.

And the HES1 expression [1]?
Its HES1 expression is “decrease HES1 expression”.

What about the OCT4 expression [1] of the same compound?
Its OCT4 expression is “induce the expression of OCT4”.

And the Sox2 expression [1]?
The Sox2 expression was “increase Sox2 expression”.

What about the “amount of CtBP1-LSD1 complex binding to OCT4 gene promoter” value [1] of the same compound?
Its value is “increased”.

What about the “expression of Tuj1” value (UCB-MSC (Promo Cell)) of the same compound?
The value was “increased”.
